In general, EC50 refers to the midpoint of the concentration-response curve. A lower EC50 goes with an effect from little substance. In general, CC50 refers to the concentration at which the toxic effect on the cells reaches its halfway point. The term half-life denotes the time in which the quantity being followed falls by half.

The test system of data set [1] is Human immunodeficiency virus 1. Kind of data set: microbe, parasite or virus in culture. It counts as functional, organism-based. As to conditions: Human immunodeficiency virus 1, 3B, CCRF-CEM.
Description: Antiviral activity against HIV1 3B infected in human CEM/0 cells assessed as inhibition of viral-induced giant cell formation incubated for 4 to 5 days by microscopy
Data set [2] can be described thus: Cytotoxicity in human CEM/0 cells assessed as reduction in cell viability incubated for 4 to 5 days.
The nature of data set [3]: Stability in aqueous 25 mM PBS at pH 7.3 assessed as hydrolysis half life by HPLC analysis. It counts as physicochemical.
The subject of data set [4] is pig liver esterase. Kind of data set: Stability in pH 7.3 PBS assessed as pig liver esterase mediated hydrolysis by measuring half life by HPLC analysis. The format is ADME, Sus scrofa.
The nature of data set [5]: Stability in human CEM/0 cell extracts assessed as hydrolysis half life by HPLC analysis. It counts as ADME, CCRF-CEM.

Structures are written as SMILES. Bounds are passed on as bounds.

For `Cc1cn([C@@H]2C[C@H](CO)[C@@H](O)C2)c(=O)[nH]c1=O`, the response in data set [1] was half-maximal at 36 µM (EC50). Further, in data set [2] (CEM/0 cells), the CC50 is > 250 µM.

Consider `CCCCCCCCCCCCCCCCOC(=O)Oc1ccc(COP(=O)(OCc2ccc(OC(=O)CCCC)cc2)OP(=O)(O)OP(=O)(O)OC[C@H]2O[C@@H](n3cc(/C=C/Br)c(=O)[nH]c3=O)C[C@@H]2O)cc1.N.N` (some centres not stated), for which the figures for the half-life in data set [3], in data set [4] and in data set [5] were 62 h, 7 h and 1.31 h, respectively. The compound also came in with a 50% effective concentration (EC50) in data set [1] of 1.49 µM. Further, the CC50 in data set [2] (CEM/0 cells) turned out to be 43 µM.

As to `CCCCCCCCCCCCCCCCOC(=O)Oc1ccc(COP(=O)(OCc2ccc(OC(=O)CC)cc2)OP(=O)(O)OP(=O)(O)OC[C@H]2C[C@@H](n3cc(C)c(=O)[nH]c3=O)C[C@@H]2O)cc1.N.N` (some centres not stated), the half-life in data set [3] is 74 h. The midpoint of the response in data set [1], the EC50, lay at 0.52 µM. Besides, the CC50 in data set [2] (CEM/0 cells) was 36 µM.

The compound `CCCCCCCCCCCCCCCCOC(=O)Oc1ccc(COP(=O)(OCc2ccc(OC(=O)CC)cc2)OP(=O)(O)OP(=O)(O)OC[C@@H]2C=C[C@H](n3cc(C)c(=O)[nH]c3=O)O2)cc1` (some centres not stated) registered an EC50 in data set [1] of 0.027 µM. This lies in the double-digit nanomolar range.

Turning to `CCCCCCCCCCCCCCCCOC(=O)Oc1ccc(COP(=O)(OCc2ccc(OC(=O)CC)cc2)OP(=O)(O)OP(=O)(O)OC[C@H]2O[C@@H](n3cc(C)c(=O)[nH]c3=O)C[C@@H]2O)cc1.N.N` (some centres not stated), the half-life in data set [3] was 76 h. In data set [1], this compound yielded a concentration for a half-maximal effect (EC50) of 10.8 µM. For the same compound, the CC50 in data set [2] (CEM/0 cells) worked out at 14 µM.

In the case of `CCCCCCCCCCCCCCCCOC(=O)Oc1ccc(COP(=O)(OCc2ccc(OC(=O)CCCC)cc2)OP(=O)(O)OP(=O)(O)OC[C@H]2O[C@@H](n3cc(Cl)c(=O)[nH]c3=O)C[C@@H]2F)cc1.N.N` (some centres not stated), the half-life in data set [3] was 66 h. This compound also returned an EC50 in data set [1] of 2.59 µM. Moreover, in data set [2] (CEM/0 cells), the CC50 was 42 µM.

`CCCCCCCCCCCCCCCCOC(=O)Oc1ccc(COP(=O)(OCc2ccc(OC(=O)CC)cc2)OP(=O)(O)OP(=O)(O)OC[C@@H]2O[C@H](n3cc(F)c(N)nc3=O)CS2)cc1.N.N` (some centres not stated): the half-life in data set [3] is 45 h; in data set [4], 2.6 h; in data set [5], 1.49 h. The compound also came in with an EC50 in data set [1] of 0.026 µM. Also, the CC50 in data set [2] (CEM/0 cells) turned out to be 35 µM.

In the case of `CCCCCCCCCCCCCCCCOC(=O)Oc1ccc(COP(=O)(OCc2ccc(OC(=O)CCCC)cc2)OP(=O)(O)OP(=O)(O)OC[C@H]2O[C@@H](n3cc(C)c(=O)[nH]c3=O)C[C@@H]2N=[N+]=[N-])cc1.N.N` (some centres not stated), the half-life in data set [3] was 84 h; in data set [4], 4 h; in data set [5], 5 h. In data set [1], this compound showed a 50% effective concentration (EC50) of 0.0037 µM. Besides, the CC50 in data set [2] (CEM/0 cells) was determined as 42 µM.

As for `CCCCCCCCCCCCCCCCOC(=O)Oc1ccc(COP(=O)(OCc2ccc(OC(=O)CC)cc2)OP(=O)(O)OP(=O)(O)OC[C@H]2O[C@@H](n3cc(Cl)c(=O)[nH]c3=O)C[C@H]2N=[N+]=[N-])cc1.N.N` (some centres not stated), the half-life in data set [3] was 67 h; in data set [4], 3 h; in data set [5] it was 2.52 h. For the same compound, in data set [1], the EC50 is > 45 µM. Also, the CC50 in data set [2] (CEM/0 cells) is 45 µM.

`CCCCCCCCCCCCCCCCOC(=O)Oc1ccc(COP(=O)(OCc2ccc(OC(=O)CCCC)cc2)OP(=O)(O)OP(=O)(O)OC[C@@H]2O[C@H](n3cc(F)c(N)nc3=O)CS2)cc1.N.N` (some centres not stated): the half-life in data set [3] was 36 h; in data set [4] it was 2.26 h; in data set [5], 2.78 h. This compound displayed an EC50 in data set [1] of 0.0043 µM. The CC50 in data set [2] (CEM/0 cells) was 40.5 µM.

Regarding `CCCCCCCCCCCCCCCCOC(=O)Oc1ccc(COP(=O)(OCc2ccc(OC(=O)CC)cc2)OP(=O)(O)OP(=O)(O)OC[C@H]2O[C@@H](n3cc(/C=C/Br)c(=O)[nH]c3=O)C[C@@H]2O)cc1.N.N` (some centres not stated), the half-life in data set [3] is 56 h. Further, in data set [1], a half-maximal effect (EC50) was put at 11.2 µM. Also, the CC50 in data set [2] (CEM/0 cells) came to 43 µM.

Take `CCCCCCCCCCCCCCCCOC(=O)Oc1ccc(COP(=O)(OCc2ccc(OC(=O)CC)cc2)OP(=O)(O)OP(=O)(O)OC[C@H]2O[C@@H](n3cc(C)c(=O)[nH]c3=O)C[C@@H]2N=[N+]=[N-])cc1.N.N` (some centres not stated): the half-life in data set [3] was 83 h. The compound further yielded a concentration for a half-maximal effect (EC50) in data set [1] of 0.0094 µM. Besides, in data set [2] (CEM/0 cells), the CC50 is 48 µM.

With `CCCCCCCCCCCCCCCCOC(=O)Oc1ccc(COP(=O)(O)OP(=O)(O)OP(=O)(O)OC[C@H]2O[C@@H](n3cc(Cl)c(=O)[nH]c3=O)C[C@@H]2F)cc1`, the EC50 in data set [1] came out at 2.5 µM. Further, the CC50 in data set [2] (CEM/0 cells) was found to be 54 µM.

For the compound `[N-]=[N+]=N[C@@H]1C[C@H](n2cc(Cl)c(=O)[nH]c2=O)O[C@@H]1CO`, in data set [1], the EC50 was > 100 µM. Moreover, in data set [2] (CEM/0 cells), the cytotoxic concentration (CC50) was > 100 µM.

Regarding `CCCCCCCCCCCCCCCCOC(=O)Oc1ccc(COP(=O)(OCc2ccc(OC(=O)CC)cc2)OP(=O)(O)OP(=O)(O)OC[C@H]2O[C@@H](n3cc(Cl)c(=O)[nH]c3=O)C[C@@H]2F)cc1.N.N` (some centres not stated), the results for the half-life in data set [3] and in data set [5] were 56 h and 1.64 h, respectively. Also, in data set [1], the EC50 was 1.28 µM. Further, in data set [2] (CEM/0 cells), the CC50 came out at 42 µM.

For the compound `CCCCCCCCCCCCCCCCOC(=O)Oc1ccc(COP(=O)(OCc2ccc(OC(=O)CCCC)cc2)OP(=O)(O)OP(=O)(O)OC[C@@H]2CC[C@H](n3cnc4c(=O)[nH]cnc43)O2)cc1.N.N` (some centres not stated), the half-life is 41 h in data set [3], 3.5 h in data set [4] and 1.57 h in data set [5]. Besides, in data set [1], a half-maximal response (EC50) required 0.93 µM. Also, the CC50 in data set [2] (CEM/0 cells) came out at 43 µM.

`CCCCCCCCCCCCCCCCOC(=O)Oc1ccc(COP(=O)(OCc2ccc(OC(=O)CCCC)cc2)OP(=O)(O)OP(=O)(O)OC[C@@H]2C=C[C@H](n3cc(C)c(=O)[nH]c3=O)O2)cc1` (some centres not stated) came in with an EC50 in data set [1] of 0.032 µM. This counts as double-digit nanomolar.

`CCCCCCCCCCCCCCCCOC(=O)Oc1ccc(COP(=O)(OCc2ccc(OC(=O)CC)cc2)OP(=O)(O)OP(=O)(O)OC[C@H]2O[C@@H](n3ccc(=O)[nH]c3=O)C[C@H]2N=[N+]=[N-])cc1.N.N` (some centres not stated): the half-life in data set [3] was 68 h; in data set [5], 1.54 h. In addition, in data set [1], the EC50 was > 44 µM. Moreover, the CC50 in data set [2] (CEM/0 cells) worked out at 44 µM.

For `[N-]=[N+]=N[C@@H]1C[C@H](n2ccc(=O)[nH]c2=O)O[C@@H]1CO`, the EC50 in data set [1] was > 250 µM. For the same compound, the CC50 in data set [2] (CEM/0 cells) was > 250 µM.

Consider `O=c1[nH]c(=O)n([C@H]2C[C@H](O)[C@@H](CO)O2)cc1/C=C/Br` [BRIVUDINE], for which, in data set [1], the EC50 is > 250 µM. Also, in data set [2] (CEM/0 cells), the CC50 is 207 µM.

For `O=c1[nH]cnc2c1ncn2[C@H]1CC[C@@H](CO)O1` [DIDANOSINE], the EC50 in data set [1] was 16 µM. Also, in data set [2] (CEM/0 cells), the CC50 is > 250 µM.

Consider `Cc1cn([C@H]2C[C@H](O)[C@@H](CO)O2)c(=O)[nH]c1=O` [DOXRIBTIMINE], for which, in data set [1], the EC50 turned out to be 4.11 µM. In addition, the CC50 in data set [2] (CEM/0 cells) was determined as 10.6 µM.

The compound `Nc1nc(=O)n([C@@H]2CS[C@H](CO)O2)cc1F` [EMTRICITABINE] showed an EC50 in data set [1] of 0.01 µM. Also, the CC50 in data set [2] (ccrf-cem) is > 100 µM.

`O=c1[nH]c(=O)n([C@H]2C[C@H](F)[C@@H](CO)O2)cc1Cl` [RALURIDINE]: the EC50 in data set [1] is > 250 µM. The CC50 in data set [2] (CEM/0 cells) was 188 µM.

As for `Cc1cn([C@H]2C=C[C@@H](CO)O2)c(=O)[nH]c1=O` [STAVUDINE], the concentration for a half-maximal effect (EC50) in data set [1] was 0.43 µM. Besides, in data set [2] (ccrf-cem), the CC50 is > 50 µM.

On to `Cc1cn([C@H]2C[C@H](N=[N+]=[N-])[C@@H](CO)O2)c(=O)[nH]c1=O` [ZIDOVUDINE], for which a half-maximal response in data set [1] (EC50) required 0.005 µM. Further, in data set [2] (CEM/0 cells), the 50% cytotoxic concentration (CC50) was > 100 µM.

These data come from ChEMBL document CHEMBL4610119, “Lipophilic Triphosphate Prodrugs of Various Nucleoside Analogues” (J Med Chem, 2020).
